Here are results for one molecule from patent US10959966B2, “Compositions and methods for modulating HEXM1 expression” (CASE WESTERN RESERVE UNIVERSITY, priority 2014, dated 2021).

The test system of data set [1] is p21 expression in prostate cancer LNCaP cells. As to the kind of experiment: p21 expression by western blot, LNCaP cells. In kind it is cell-based. The following applies: 5 mM HMBA or 50 μM 4a1, 18 hours. The protocol:
(§1) FIGS. 7(A-B) illustrate Western blots showing (A) MCF7 (control siRNA or HEXIM1 siRNA) and (B) LNCaP (control shRNA or HEXIM1 shRNA) cells treated with vehicle (DMSO), 5 mM HMBA, or 50 μM 4a1 for 18 hours.
(§2) Cell lysates were analyzed by western blot as previously described. Anti-HEXIM1 was generated in the Montano laboratory. Primary antibodies against p21 (C-19; cat# sc-397), cyclin D1 (HD11; cat# sc-246) and myc (9E10; cat# sc-40) were obtained from Santa Cruz Biotechnology. Anti-GAPDH was obtained from Millipore. Anti-HIF-1α was obtained from Oxy-cell, Bioresearch).
(§3) HMBA was investigated in a Phase II clinical trial due to its potent anti-cancer and cell differentiation activities. Moreover, the roles of HMBA, and potentially 4a1, as differentiating factors are advantageous for their therapeutic use when compared to cytotoxic agents. […] We also examined the ability of 4a1 to induce differentiation and the relative role of HEXIM1.
(In general: In western blotting, separated proteins are transferred to a membrane and probed.)

For data set [2], the system named is triple negative MDA-MB-231 breast cancer cells. Put plainly: Nile red staining of lipid droplets (differentiation marker), MDA-MB-231 cells. To be noted: 72 hours. In kind it is cell-based. The protocol: (§4) FIGS. 8(A-B) illustrate images showing (A) MCF7 cells transfected with control or HEXIM1 siRNA or (B) MDA-MB-231 transfected with control or HEXIM1 expression vector treated with vehicle (DMSO), HMBA, or 4a1 for 72 hours. Lower panels show Western blot analyses of HEXIM1 expression in MDA-MB-231 cells transfected with control or expression vector for Flag-tagged HEXIM1.
(§5) Cells were stained with Nile red for lipid droplets (marker of cell differentiation). Briefly, the stock solution of Nile red 1 mg/ml in acetone was diluted in PBS (1:1000). The fixed cells (4% paraformaldehyde) were incubated with diluted Nile red for 5 minutes at room temperature, rinsed with PBS and observed for the presence of lipid droplets by confocal microscopy. Images were digitally captured using a Leica microscope (Leica Microsystems Inc, IL, USA).

The subject of data set [3] is recruitment of CDK9 to HEXIM1 gene in LNCaP cells. Put plainly: ChIP assay, CDK9 recruitment to HEXIM1 gene, LNCaP cells. It is filed as cell-based. The following applies: 5 mM HMBA or 50 μM 4a1, 90 minutes. The procedure: (§6) FIGS. 6(A-B) illustrate graphs showing HEXIM1 graphs showing HMBA and 4a1 induced recruitment of CDK9 to HEXIM1 promoter in MCF7 and LNCaP cells treated with 5 mM HMBA or 50 μM 4a1 for 90 minutes.
(§7) ChIP assays were carried out as previously described. Anti-CDK9 antibody (D-7; cat# sc-13130) was obtained from Santa Cruz Biotechnology.
(§8) The induction of HEXIM1 by HMBA appears to involve the release of free P-TEFb from 7SK snRNP, and recruitment of P-TEFb to HEXIM1 gene. P-TEFb is a heterodimer between the cyclin-dependent kinase 9 (Cdk9) and its regulatory subunit Cyclin T1 (CycT1). We thus determined the regulation of the recruitment of CDK9 to the HEXIM1 coding sequence by HMBA and 4a1.

For data set [4] the following is noted: in vivo; cited from earlier work.
Data set [5] has as its system HEXIM1 expression in MCF7/TOTR cells. Put plainly: HEXIM1 expression in tamoxifen resistant MCF7/TOTR cells. To be noted: 5 mM HMBA or 50 μM 4a1. In kind it is cell-based. The protocol:
(§9) FIGS. 9(A-B) illustrate a Western blot and plots showing HEXIM1 expression in MCF7 and MCF7(TOTR) cells in the presence of vehicle (DMSO), 5 mM HMBA or 50 μM 4a1.
MCF7, MDA-MB-231, and LNCaP cells were obtained from the American Tissue Culture Collection, and were maintained as previously described. Construction of expression vectors for control miRNA or HEXIM1 miRNAs were described previously. MCF7 or LNCaP cells were transfected with expression vectors containing either the HEXIM1 miRNA insert or a control miRNA insert as previously described. Following blasticidin selection, cells expressing the highest level of GFP were flow-sorted and expanded. MDA-MB-231 cells were transfected with control or expression vector for Flag-tagged HEXIM1 as previously described. […]
Cell lysates were analyzed by western blot as previously described. […]
(§10) We have reported that HEXIM1 is required for the ability of antiestrogens to inhibit the activity of the Estrogen Receptor, that loss of HEXIM1 results in agonistic activity of tamoxifen, and that recurrence after tamoxifen therapy can be correlated with loss of HEXIM1 expression in human breast tissue samples. Thus we determined if HMBA and 4a1 can enhance sensitivity to tamoxifen of a tamoxifen resistant breast cancer line (MCF7/TOTR). […]

The test system of data set [6] is tamoxifen resistant breast cancer line (MCF7/TOTR). As to the kind of experiment: MTT proliferation assay, sensitivity to trans-hydroxytamoxifen. In kind it is cell-based. To be noted: 7 days, 5 mM HMBA or 50 μM 4a1. The procedure:
as §9
MCF7, MDA-MB-231, and LNCaP cells were obtained from the American Tissue Culture Collection, and were maintained as previously described. Construction of expression vectors for control miRNA or HEXIM1 miRNAs were described previously. MCF7 or LNCaP cells were transfected with expression vectors containing either the HEXIM1 miRNA insert or a control miRNA insert as previously described. Following blasticidin selection, cells expressing the highest level of GFP were flow-sorted and expanded. […]
MCF7 cells were plated onto 96 well plates and treated with 17β-estradiol±trans-hydroxytamoxifen in the presence of DMSO (vehicle), HMBA or 4a1 for 7 days. Cell proliferation was assessed using the MTT based Cell Growth Determination Kit from Sigma-Aldrich according to the manufacturer's protocol.
as §10

Data set [7] has as its system p21 expression in breast cancer MCF7 cells. As to the kind of experiment: p21 expression by western blot, MCF7 cells. It is filed as cell-based. To be noted: 5 mM HMBA or 50 μM 4a1, 18 hours. The procedure: as §1, §2, §3
The test system of data set [8] is recruitment of CDK9 to HEXIM1 gene in MCF7 cells. As to the kind of experiment: ChIP assay, CDK9 recruitment to HEXIM1 gene, MCF7 cells. It is filed as cell-based. To be noted: 5 mM HMBA or 50 μM 4a1, 90 minutes. The protocol: as §6, §7, §8
The test system of a further data set is HEXIM1. To be noted: in vitro cell cultures; cited from earlier work.
Data set [9] has as its system HEXIM1 targets in MCF7 cells. Put plainly: Western blot of HEXIM1 targets in MCF7 cells. It is filed as cell-based. The following applies: 5 mM HMBA or 50 uM 4a1, 18 h, relative to GAPDH. The protocol: FIG. 10 illustrates a Western blot of MCF7 cells treated with vehicle, 5 mM HMBA, or 50 uM 4a1 for 18 h, and processes for analyses of HEXIM1 targets relative to GAPDH.
as §2
To assess the clinical potential of HMBA and 4a1 we need to determine to what extent the targets of HMBA and 4a1 overlap with that of HEXIM1. We focused on direct targets of HEXIM1 that we have identified.

The conditions of data set [10]: administered in vivo; cited from earlier work.
For a further data set, the system named is MCF7 cells. As to the kind of experiment: Nile red staining of lipid droplets (differentiation marker), MCF7 cells. It is filed as cell-based. To be noted: 72 hours. The protocol: as §4, §5
For data set [11] the following is noted: cited from earlier work.

For the molecule `CC(=O)NCCCCCCNC(C)=O` [HMBA, Hexamethylene bis-acetamide, reference compound], the p21 expression result in [1] was “induction of p21 expression”; in data set [7] it was “induced p21 expression”. Besides, the “Cell differentiation (lipid droplets, Nile red)” value (in [2]; with MCF7 cells) was “induced differentiation” each time. Further, the “Recruitment of CDK9 to HEXIM1 gene” value in data set [3] and in [8] was “induce recruitment of CDK9” each time. For the same molecule, the “Toxicity in Phase II clinical trial” value in [4] is given as “dose-dependent toxicity”. In data set [5], the HEXIM1 expression entry is listed as “induced HEXIM1 expression”. Further, in data set [6], the “Sensitivity of TOTR cells to trans-hydroxytamoxifen” value was “enhanced the sensitivity”. Moreover, the “Concentrations at which HMBA induces HEXIM1” value in the data set with HEXIM1 is “one to five”. For the same molecule, in [9], the “Expression of proteins directly regulated by HEXIM1” value is on record as “regulated expression of proteins”. Moreover, in [10], the Half-life result is given as “short half-life”. The Tissue distribution entry in [10] is “poor tissue distribution”. Besides, the Water solubility result in [11] is reported as “water soluble”.
